The target of one test is T1, human PHD2 (Homo sapiens, UniProt Q9GZT9).
T1 construct: made in house; host or cells: Sf9 insect cells (baculovirus, pVL1393 vector)
Nature of the test: Measurement of human PHD inhibitory activity (TR-FRET, hydroxylation of HIF-1α partial peptide). The test is classed as biochemical. Particulars: human PHD2 enzyme 1 nM, 25° C. 30 min, values consisting solely of numbers; read-out: IC50 (μM) in vitro, human PHD inhibitory activity. Put shortly: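 FLAG-tagged human PHD2 from Sf9 cells (1 nM final) hydroxylates a biotinylated 19-residue HIF-1α peptide, 30 min at 25° C. After EDTA stop, hydroxyproline detected by TR-FRET using Eu/Xlent-labelled VBC complex; % inhibition relative to no-enzyme and no-compound wells.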
Background: Time-resolved FRET reads energy transfer from a long-lived donor to a nearby acceptor.

The subject of test [1] is human EPO production, Hep3B cells. Nature of the test: Human EPO production activity in Hep3B cells (EPO-ELISA of culture supernatant). The test is classed as cell-based. Particulars: for EC50: Homo sapiens, 24 hr incubation, values consisting solely of numbers, read-out: EC50 (μM) in vitro, human EPO production activity; for production activity (%) at 30 μM in vitro, human EPO: 24 hr, values containing %, relative to maximum production. A digest of the protocol:
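Hep3B cells were dosed with compound 24 h after plating and incubated 24 h at 37° C. Secreted EPO in supernatant was measured by ELISA. Values are EC50, or activity (%) at 30 μM scaled between untreated and maximum production.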

The structures appear in SMILES notation. Structures can show the parent of a compound that is named as a salt.

By IC50 is commonly meant the concentration at which inhibition is half-maximal. Broadly, the EC50 is the concentration that produces a half-maximal response.

T1 sequence (Q9GZT9 whole entry): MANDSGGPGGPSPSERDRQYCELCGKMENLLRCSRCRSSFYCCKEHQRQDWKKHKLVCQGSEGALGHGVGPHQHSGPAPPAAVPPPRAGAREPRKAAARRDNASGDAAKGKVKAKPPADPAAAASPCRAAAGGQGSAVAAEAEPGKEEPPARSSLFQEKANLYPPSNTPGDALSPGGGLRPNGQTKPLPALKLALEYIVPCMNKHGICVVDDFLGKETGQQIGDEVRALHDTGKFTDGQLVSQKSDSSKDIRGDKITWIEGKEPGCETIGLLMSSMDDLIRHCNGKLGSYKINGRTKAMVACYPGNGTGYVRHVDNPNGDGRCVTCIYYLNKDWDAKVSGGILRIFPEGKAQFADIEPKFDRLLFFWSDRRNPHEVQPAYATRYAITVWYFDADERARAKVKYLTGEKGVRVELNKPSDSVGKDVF

With `O=C(O)CNC(=O)c1c(O)cc(-c2ccc(F)c(F)c2)n2ncnc12` [Example 25, {[5-(3,4-difluorophenyl)-7-hydroxy[1,2,4]triazolo[1,5-a]pyridine-8-carbonyl]amino}acetic acid hydrochloride], the IC50 at human PHD2 was 0.25 µM. Also, the EC50 in test [1] came to 14.1 µM.
On to `Cl.O=C(O)CNC(=O)c1c(O)cc(CC2CCCCC2)c2ncnn12` [Example 91, [(8-cyclohexylmethyl-6-hydroxy[1,2,4]triazolo[1,5-a]pyridine-5-carbonyl)amino] acetic acid hydrochloride], for which, on human PHD2, the IC50 came to 1.53 µM. Further, the “production activity (%) at 30 μM in vitro, human EPO” value (from here on “production activity (%) at 30 μM”) in test [1] is 43%.
`O=C(O)CNC(=O)c1c(O)ccc2cnnn12` [Example 11, [(6-hydroxy[1,2,3]triazolo[1,5-a]pyridine-7-carbonyl)amino]acetic acid]: the IC50 at human PHD2 amounted to 0.29 µM. Also, the “production activity (%) at 30 μM” value in test [1] is 1%.
With `O=C(O)CNC(=O)c1c(O)cc(-c2ccc(F)c(C(F)(F)F)c2)n2ncnc12` [Example 1, {[5-(4-fluoro-3-trifluoromethylphenyl)-7-hydroxy[1,2,4]triazolo[1,5-a]pyridine-8-carbonyl]amino}acetic acid hydrochloride], the IC50 at human PHD2 was 0.42 µM. In test [1], the EC50 turned out to be 9.9 µM.
Take `O=C(O)CNC(=O)c1c(O)cc(-c2ccc(F)c(Cl)c2)n2ncnc12` [Example 23, {[5-(3-chloro-4-fluorophenyl)-7-hydroxy[1,2,4]triazolo[1,5-a]pyridine-8-carbonyl]amino}acetic acid hydrochloride]: the IC50 on human PHD2 stood at 0.19 µM. The EC50 in test [1] worked out at 7.8 µM.
Regarding `C[C@H](NC(=O)c1c(O)cc(CCc2ccccc2)n2ncnc12)C(=O)O` [Example 69, (S)-2-[(7-hydroxy-5-phenethyl[1,2,4]triazolo[1,5-a]pyridine-8-carbonyl)amino] propionic acid hydrochloride], the half-inhibitory concentration (IC50) on human PHD2 turned out to be 1.62 µM. In addition, in test [1], the EC50 was 12 µM.
For `O=C(O)CNC(=O)c1c(O)cc(CCC2CCCC2)c2ncnn12` [Example 99, {[8-(2-cyclopentylethyl)-6-hydroxy[1,2,4]triazolo[1,5-a]pyridine-5-carbonyl]amino} acetic acid hydrochloride] the same measures were 0.87 µM and 20.2 µM.
For `O=C(O)CNC(=O)c1c(O)cc(-c2cc(F)cc(F)c2)c2ncnn12` [Example 85, {[8-(3,5-difluorophenyl)-6-hydroxy[1,2,4]triazolo[1,5-a]pyridine-5-carbonyl]amino} acetic acid hydrochloride], in that order: 0.16 µM and 20.6 µM.
Turning to `O=C(O)CNC(=O)c1c(O)cc(-c2cc(Cl)cc(C3CC3)c2)c2ncnn12` [Example 103, {[8-(3-chloro-5-cyclopropylphenyl)-6-hydroxy[1,2,4]triazolo[1,5-a]pyridine-5-carbonyl]amino} acetic acid hydrochloride], the IC50 at human PHD2 is 0.18 µM. For the same compound, the EC50 in test [1] is 6.9 µM.
For `Cc1ccc(-c2cc(O)c(C(=O)NCC(=O)O)c3ncnn23)s1` [Example 72, {[7-hydroxy-5-(5-methylthiophen-2-yl) [1,2,4]triazolo[1,5-a]pyridine-8-carbonyl]amino} acetic acid hydrochloride], in that order: 0.4 µM and 4 µM.
For `O=C(O)CNC(=O)c1c(O)cc(-c2ccccc2F)n2ncnc12` [Example 61, {[5-(2-fluorophenyl)-7-hydroxy[1,2,4]triazolo[1,5-a]pyridine-8-carbonyl]amino} acetic acid hydrochloride] the same measures were 0.22 µM and 28.8 µM.
As for `CCC(CC)Cc1cc(O)c(C(=O)NCC(=O)O)c2ncnn12` [Example 45, {[5-(2-ethylbutyl)-7-hydroxy[1,2,4]triazolo[1,5-a]pyridine-8-carbonyl]amino}acetic acid hydrochloride], at human PHD2, the IC50 stood at 0.92 µM. Moreover, in test [1], the EC50 was 9.9 µM.
Take `Cc1ccc(-c2cc(O)c(C(=O)NCC(=O)O)c3ncnn23)cc1` [Example 26, {[7-hydroxy-5-(p-tolyl)[1,2,4]triazolo[1,5-a]pyridine-8-carbonyl]amino}acetic acid hydrochloride]: the IC50 on human PHD2 was determined as 0.33 µM. In test [1], the EC50 came out at 7.5 µM.
Take `O=C(O)CNC(=O)c1c(O)cc(-c2cc(C(F)(F)F)cc(C(F)(F)F)c2)c2ncnn12` [Example 97, {[8-(3,5-bis-trifluoromethyl-phenyl)-6-hydroxy[1,2,4]triazolo[1,5-a]pyridine-5-carbonyl]amino} acetic acid hydrochloride]: at human PHD2, the IC50 came to 0.13 µM. For the same compound, the EC50 in test [1] came to 3.5 µM.
As to `CC(C)(C)CCc1cc(O)c(C(=O)NCC(=O)O)n2ncnc12` [Example 8, {[8-(3,3-dimethyl-butyl)-6-hydroxy[1,2,4]triazolo[1,5-a]pyridine-5-carbonyl]amino}acetic acid hydrochloride], the IC50 at human PHD2 is 0.49 µM. Besides, the EC50 in test [1] is 13.4 µM.
Take `C[C@@H](NC(=O)c1c(O)cc(-c2cc(F)cc(F)c2)n2ncnc12)C(=O)O` [Example 64, (R)-2-{[5-(3,5-difluorophenyl)-7-hydroxy[1,2,4]triazolo[1,5-a]pyridine-8-carbonyl]amino} propionic acid hydrochloride]: the IC50 on human PHD2 came to 6.88 µM. Moreover, in test [1], the “production activity (%) at 30 μM” value stood at 0%.
Regarding `Cc1cccc(-c2cc(O)c(C(=O)NCC(=O)O)c3ncnn23)c1` [Example 51, [(7-hydroxy-5-(m-tolyl)[1,2,4]triazolo[1,5-a]pyridine-8-carbonyl)amino] acetic acid hydrochloride], the IC50 at human PHD2 worked out at 0.26 µM. The EC50 in test [1] worked out at 9.1 µM.
For `O=C(O)CNC(=O)c1c(O)cc(-c2cc(Cl)cc(Cl)c2)n2ncnc12` [Example 46, {[5-(3,5-dichlorophenyl)-7-hydroxy[1,2,4]triazolo[1,5-a]pyridine-8-carbonyl]amino}acetic acid hydrochloride], on human PHD2, the IC50 was found to be 0.29 µM. Further, in test [1], the half-maximal effective concentration (EC50) was 4.8 µM.
Regarding `O=C(O)CNC(=O)c1c(O)cc(Cc2ccc(F)cc2)n2ncnc12` [Example 63, acetic acid hydrochloride], at human PHD2, the IC50 was found to be 0.36 µM. In addition, in test [1], the EC50 is 19.7 µM.
Regarding `O=C(O)CNC(=O)c1c(O)cc(-c2cc(F)cc(F)c2F)n2ncnc12` [Example 76, {[7-hydroxy-5-(2,3,5-trifluorophenyl) [1,2,4]triazolo[1,5-a]pyridine-8-carbonyl]amino} acetic acid hydrochloride], the IC50 on human PHD2 was 0.22 µM. Moreover, the EC50 in test [1] was found to be 18 µM.
Turning to `O=C(O)CNC(=O)c1c(O)cc(-c2cc(F)c(F)c(F)c2)n2ncnc12` [Example 49, {[7-hydroxy-5-(3,4,5-trifluorophenyl)[1,2,4]triazolo[1,5-a]pyridine-8-carbonyl]amino}acetic acid hydrochloride], at human PHD2, the IC50 came out at 0.24 µM. For the same compound, the EC50 in test [1] is 11.7 µM.
With `O=C(O)CNC(=O)c1c(O)cc(CCC2CCCC2)n2ncnc12` [Example 60, {[5-(2-cyclopentylethyl)-7-hydroxy[1,2,4]triazolo[1,5-a]pyridine-8-carbonyl]amino} acetic acid hydrochloride], at human PHD2, the IC50 came to 0.74 µM. In addition, in test [1], the EC50 came out at 8.4 µM.
For `O=C(O)CNC(=O)c1c(O)cc(-c2ccc(C(F)(F)F)cc2)n2ncnc12` [Example 57, {[7-hydroxy-5-(4-trifluoromethyl-phenyl)[1,2,4]triazolo[1,5-a]pyridine-8-carbonyl]amino} acetic acid hydrochloride], in that order: 0.2 µM and 4.7 µM.
As for `Cl.O=C(O)CNC(=O)c1c(O)c(-c2ccccc2)cn2c(-c3ccccc3)nnc12` [Example 111, [(7-hydroxy-3,6-diphenyl[1,2,4]triazolo[4,3-a]pyridine-8-carbonyl)amino] acetic acid hydrochloride], at human PHD2, the IC50 stood at 1.1 µM. In addition, in test [1], the “production activity (%) at 30 μM” value was determined as 0%.
As for `O=C(O)CNC(=O)c1c(O)cc(-c2cc(F)ccc2F)n2ncnc12` [Example 75, {[5-(2,5-difluorophenyl)-7-hydroxy[1,2,4]triazolo[1,5-a]pyridine-8-carbonyl]amino} acetic acid hydrochloride], at human PHD2, the IC50 turned out to be 0.21 µM. Further, in test [1], the concentration giving a half-maximal response (EC50) worked out at 23.7 µM.
Consider `O=C(O)CNC(=O)c1c(O)cc(-c2cc(F)cc(Cl)c2)c2ncnn12` [Example 105, {[8-(3-chloro-5-fluorophenyl)-6-hydroxy[1,2,4]triazolo[1,5-a]pyridine-5-carbonyl]amino} acetic acid hydrochloride], for which, on human PHD2, the IC50 was determined as 0.1 µM. Further, the EC50 in test [1] was 5.9 µM.
For `CC(C)(C)Cc1cc(O)c(C(=O)NCC(=O)O)c2ncnn12` [Example 39, {[5-(2,2-dimethylpropyl)-7-hydroxy[1,2,4]triazolo[1,5-a]pyridine-8-carbonyl]amino}acetic acid hydrochloride], on human PHD2, the IC50 is 1.25 µM. In test [1], the EC50 stood at 22.3 µM.
As to `O=C(O)CNC(=O)c1c(O)cc(-c2cccc(F)c2F)n2ncnc12` [Example 59, {[5-(2,3-difluorophenyl)-7-hydroxy[1,2,4]triazolo[1,5-a]pyridine-8-carbonyl]amino} acetic acid hydrochloride], at human PHD2, the IC50 is 0.26 µM. Besides, the “production activity (%) at 30 μM” value in test [1] was determined as 49%.
`CC(NC(=O)c1c(O)cc(-c2cc(F)cc(F)c2)n2ncnc12)C(=O)O` (stereo not shown) [Example 66, 2-{[5-(3,5-difluorophenyl)-7-hydroxy-[1,2,4]triazolo [1,5-a]pyridine-8-carbonyl]amino} propionic acid hydrochloride]: the IC50 at human PHD2 stood at 1.5 µM. In addition, the EC50 in test [1] came to 21.1 µM.

These data come from patent publication US8283465B2, “Triazolopyridine compound, and action thereof as prolyl hydroxylase inhibitor or erythropoietin production-inducing agent” (Japan Tobacco Inc., priority 2009, dated 2012).
